The values below come from patent publication US20100292210A1, “Novel Compounds for A-Beta-Related Pathologies” (AstraZeneca AB, priority 2009, published 2010).

SMILES strings stand for the structures.

In the assay the test system is Aβ42 release. Put plainly: Aβ42 release from HEK cells stably expressing APPswe, Meso Scale Discovery electrochemiluminescence assay. It is filed as cell-based. As to conditions: Homo sapiens, HEK293; HEK cell line stably expressing APPswe; 4-6 h incubation with test compound; Aβ42 secreted to cell medium; read-out: pIC50 values of Aβ42 release (converted). The protocol:
The level of activity of the compounds on Aβ formation was tested using the following method:
Compounds were diluted in 100% DMSO and stored at […] prior to use. Human Embryonic Kidney (HEK) cell line stably expressing APP with the Swedish mutation (APPswe) were cultured using Dulbecco's Modified Eagles medium (DMEM) supplied with […] glucose, Na-pyruvate and GlutaMAX with 10% FBS, 100 U/ml penicillin-streptomycin (PEST) respectively, 1×non-essential amino acids (NEAA), […], 100 μg/ml Zeocine. Cells at about 80% confluence were washed with PBS, detached from culture flasks using 1×Trypsin/EDTA diluted in PBS, re-suspended in cell media and plated in 384-well poly-d-lysine coated cell culture plates at about 10000-15000 cells/well, in 25 μL cell media. Optionally, cryo-preserved cells (frozen and stored at −140° C. in 90% cell media and 10% DMSO) were thawed, washed and plated as above. Next the cells were incubated for 15-24 h at 37° C. and 5% CO2, after which cell medium was changed. Fresh medium containing test compound diluted ×200 from prepared compound plate was added to the cells before further incubation for 4-6 hours at 37° C. and 5% CO2. After incubation with test compound the amount of Aβ peptides, including Aβ42, Aβ40, Aβ39, Aβ38 and Aβ37, secreted to cell medium was analyzed using the electrochemiluminescence assay technology from Meso Scale Discovery Technology, in combination with specific antibodies raised against the different Aβ peptides. Potential cytotoxic effects of the compounds were usually assayed by measuring the ATP content (ViaLight) from cell lysate.
With `Cc1cc(C2CN(CC#N)Cc3ccc(Nc4ccc(-n5ccnc5C)cc4)nc3O2)n(C)n1` (stereo not drawn) [Example 27, 2-(2-(1,3-Dimethyl-1H-pyrazol-5-yl)-8-(4-(2-methyl-1H-imidazol-1-yl)phenylamino)-2,3-dihydropyrido[3,2-f][1,4]oxazepin-4(5H)-yl)acetonitrile], the IC50 was 7940 nM.

As for `COc1cc(Nc2ncc3c(n2)O[C@H](c2ccccc2)CN(C)C3)ccc1-n1cnc(C)c1` [Example 13, (R)—N-(3-methoxy-4-(4-methyl-1H-imidazol-1-yl)phenyl)-6-methyl-8-phenyl-5,6,7,8-tetrahydropyrimido[5,4-f][1,4]oxazepin-2-amine], the IC50 was 20 nM.

For the compound `COc1cc(Nc2ccc3c(n2)OC(c2ccccn2)CN(C)C3)ccc1-n1cnc(C)c1` (stereo not drawn) [Example 37, N-(3-Methoxy-4-(4-methyl-1H-imidazol-1-yl)phenyl)-4-methyl-2-(pyridin-2-yl)-2,3,4,5-tetrahydropyrido[3,2-f][1,4]oxazepin-8-amine], the IC50 is 126 nM.

`COc1cc(Nc2ccc3c(n2)OC(c2ccccc2)CN(C)C3=O)ccc1-n1cnc(C)c1` (stereo not drawn) [Example 4, 8-(3-methoxy-4-(4-methyl-1H-imidazol-1-yl)phenylamino)-4-methyl-2-phenyl-3,4-dihydropyrido[3,2-f][1,4]oxazepin-5(2H)-one]: the IC50 was 200 nM.

As to `COc1cc(Nc2ccc3c(n2)OC(c2ccccc2)CN(CC#N)C3)ccc1-n1cnc(C)c1` (stereo not drawn) [Example 14, 2-(8-(3-methoxy-4-(4-methyl-1H-imidazol-1-yl)phenylamino)-2-phenyl-2,3-dihydropyrido[3,2-f][1,4]oxazepin-4(5H)-yl)acetonitrile], the IC50 is 20 nM.

Turning to `COc1cc(Nc2ccc3c(n2)OC(c2cccnc2)CN(C)C3)ccc1-n1cnc(C)c1` (stereo not drawn) [Example 19, N-(3-methoxy-4-(4-methyl-1H-imidazol-1-yl)phenyl)-4-methyl-2-(pyridin-3-yl)-2,3,4,5-tetrahydropyrido[3,2-f][1,4]oxazepin-8-amine], the IC50 is 158 nM.

As to `COc1cc(Nc2ccc3c(n2)O[C@H](c2ccccc2)CN(CCO)C3)ccc1-n1cnc(C)n1` [Example 41, (R)-2-(8-(3-Methoxy-4-(3-methyl-1H-1,2,4-triazol-1-yl)phenylamino)-2-phenyl-2,3-dihydropyrido[3,2-f][1,4]oxazepin-4(5H)-yl)ethanol], the IC50 was 39.8 nM.

`Cc1cn(-c2ccc(Nc3ccc4c(n3)O[C@H](c3ccccc3)CN(CCO)C4)cc2)cn1` [Example 42, (R)-2-(8-(4-(4-Methyl-1H-imidazol-1-yl)phenylamino)-2-phenyl-2,3-dihydropyrido[3,2-f][1,4]oxazepin-4(5H)-yl)ethanol]: the IC50 is 31.6 nM.

For `COc1cc(Nc2ccc3c(n2)O[C@H](c2ccccc2)CN(C(=O)N(C)C)C3)ccc1-n1cnc(C)c1` [Example 40, (R)-8-(3-Methoxy-4-(4-methyl-1H-imidazol-1-yl)phenylamino)-N,N-dimethyl-2-phenyl-2,3-dihydropyrido[3,2-f][1,4]oxazepine-4(5H)-carboxamide], the IC50 is 50.1 nM.

Turning to `OCCN1Cc2ccc(Nc3ccc(-n4cncn4)c(Cl)c3)nc2O[C@H](c2ccccc2)C1` [Example 32, (R)-2-(8-(3-Chloro-4-(1H-1,2,4-triazol-1-yl)phenylamino)-2-phenyl-2,3-dihydropyrido[3,2-f][1,4]oxazepin-4(5H)-yl)ethanol], the IC50 was 501 nM.

For the compound `CN1CC(c2ccccc2)Oc2nc(Oc3ccc(-n4ccnc4)cc3)ncc2C1=O` (stereo not drawn) [Example 28, 2-(4-(1H-Imidazol-1-yl)phenoxy)-6-methyl-8-phenyl-7,8-dihydropyrimido[5,4-f][1,4]oxazepin-5(6H)-one], the IC50 is 6310 nM.

For the compound `COc1cc(Nc2ccc3c(n2)O[C@H](c2ccccc2)CN(C)C3)ccc1-n1cnc(C)n1` [Example 44, (R)—N-(3-Methoxy-4-(3-methyl-1H-1,2,4-triazol-1-yl)phenyl)-4-methyl-2-phenyl-2,3,4,5-tetrahydropyrido[3,2-f][1,4]oxazepin-8-amine], the IC50 is 31.6 nM.
